Measured values as given in ChEMBL document CHEMBL3124840, “Chemical composition of the bark of Tetrapterys mucronata and identification of acetylcholinesterase inhibitory constituents” (J Nat Prod, 2014).
pIC50: −log10 of the molar value.

The compounds below were run against Acetylcholinesterase (Electrophorus electricus, UniProt O42275).
Chain of Acetylcholinesterase (O42275 whole entry): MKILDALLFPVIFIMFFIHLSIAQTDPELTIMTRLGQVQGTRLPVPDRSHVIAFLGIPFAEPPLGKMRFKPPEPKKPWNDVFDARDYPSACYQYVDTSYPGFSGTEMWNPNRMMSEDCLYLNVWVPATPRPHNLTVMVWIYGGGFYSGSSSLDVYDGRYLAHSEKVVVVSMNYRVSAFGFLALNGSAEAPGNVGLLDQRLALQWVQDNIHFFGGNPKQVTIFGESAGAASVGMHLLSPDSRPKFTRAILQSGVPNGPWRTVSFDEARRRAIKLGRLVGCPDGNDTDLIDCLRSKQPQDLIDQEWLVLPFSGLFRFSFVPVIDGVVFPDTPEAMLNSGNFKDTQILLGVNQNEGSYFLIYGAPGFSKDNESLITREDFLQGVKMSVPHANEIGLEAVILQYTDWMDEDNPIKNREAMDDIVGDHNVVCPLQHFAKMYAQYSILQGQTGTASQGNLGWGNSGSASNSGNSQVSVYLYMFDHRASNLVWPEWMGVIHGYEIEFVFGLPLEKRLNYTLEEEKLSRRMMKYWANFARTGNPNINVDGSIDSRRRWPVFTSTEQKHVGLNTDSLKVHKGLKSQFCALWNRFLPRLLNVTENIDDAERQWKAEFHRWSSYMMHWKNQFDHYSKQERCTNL
Description: Inhibition of Electric eel AChE assessed as amount of thiocholine released using acetylthiocholine iodide as substrate after 6 mins by Ellman's method
`CN(C)CCc1c(C(c2c[nH]c3ccccc23)C(O)CO)[nH]c2ccc(O)cc12` (stereo not given) gave a pIC50 of 4.93.
For `NCCc1c(C(c2c[nH]c3ccccc23)C(O)CO)[nH]c2ccc(O)cc12` (stereo not given), the pIC50 was 4.90.
For `CNCCc1c[nH]c2ccc(OC)cc12`, the pIC50 was 4.90.
`CN(C)CCc1c[nH]c2ccc(O)cc12` [BUFOTENINE] gave a pIC50 of 4.94.
In the case of `COc1ccc2[nH]cc(CCN(C)C)c2c1` [MEBUFOTENIN], the pIC50 was 4.85.
